Results from BindingDB's records for doi:10.1016/j.bmcl.2004.08.063 (Abbott Laboratories, 2004).
pKi: −log10 of the molar value.

What was measured:
[1] = target: T1, Tyrosine-protein phosphatase non-receptor type 2 (Homo sapiens, UniProt P17706); experiment: PTP1B and TCPTP Inhibition Assay; conditions: pH 7.5; 22 °C
T1 sequence (P17706 whole entry): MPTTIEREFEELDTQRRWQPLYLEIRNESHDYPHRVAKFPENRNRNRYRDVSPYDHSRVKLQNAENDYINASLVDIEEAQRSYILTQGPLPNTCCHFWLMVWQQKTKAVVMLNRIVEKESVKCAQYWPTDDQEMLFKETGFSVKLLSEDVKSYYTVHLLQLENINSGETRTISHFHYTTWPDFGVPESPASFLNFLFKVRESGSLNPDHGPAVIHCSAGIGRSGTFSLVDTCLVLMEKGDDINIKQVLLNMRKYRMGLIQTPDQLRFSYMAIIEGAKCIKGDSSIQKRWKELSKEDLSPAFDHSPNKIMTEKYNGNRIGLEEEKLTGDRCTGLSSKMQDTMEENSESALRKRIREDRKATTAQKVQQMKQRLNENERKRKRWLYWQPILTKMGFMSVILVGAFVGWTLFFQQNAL
Experimental: (§1) For each concentration of test compound or DMSO control, the initial rates were used to fit the rectangular hyperbola of Michaelis-Menten by nonlinear regression analysis. The ratio of the apparent Km/Vmax vs inhibitor concentration was plotted, and the Ki was calculated by linear regression to be the negative X-intercept.

[2] = target: T2, Tyrosine-protein phosphatase non-receptor type 1 [1-298] (Homo sapiens, UniProt P18031); experiment: PTP1B and TCPTP Inhibition Assay; conditions: pH 7.5; 22 °C
T2 construct: 1-298
T2 sequence (P18031 whole entry): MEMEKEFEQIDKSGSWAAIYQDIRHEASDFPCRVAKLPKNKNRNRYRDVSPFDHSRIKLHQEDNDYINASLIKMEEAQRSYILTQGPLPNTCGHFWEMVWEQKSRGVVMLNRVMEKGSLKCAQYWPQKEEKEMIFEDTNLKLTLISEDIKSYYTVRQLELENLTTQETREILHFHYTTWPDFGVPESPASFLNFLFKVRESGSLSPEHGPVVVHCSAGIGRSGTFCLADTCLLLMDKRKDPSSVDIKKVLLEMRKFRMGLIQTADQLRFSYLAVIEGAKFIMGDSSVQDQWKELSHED
Experimental: as §1

pKi [1] | pKi [2] | SMILES
< 4.52 |  | COC(=O)c1c(O)cccc1OC/C=C/c1cccc(-c2onc(C(=O)O)c2N)c1 [4-amino-5-{3-[(1E)-3-[3-hydroxy-2-(methoxycarbonyl)phenoxy]prop-1-en-1-yl]phenyl}-1,2-oxazole-3-carboxylic acid]
 | 4.64 | COC(=O)c1c(O)cccc1OCC1CC1c1cccc(-c2cc(C(=O)O)no2)c1 (configuration not stated) [5-(3-{2-[3-hydroxy-2-(methoxycarbonyl)phenoxymethyl]cyclopropyl}phenyl)-1,2-oxazole-3-carboxylic acid]
